From a melting point compilation (Tetko et al.; mined from patent text by program, amines drawn as free bases though some values may be those of a salt)

First: COC(C)COC(=O)Nc1ccc(C2=NNC(=O)CC2C)cc1 (stereo not drawn)
Second: COC(=O)c1ccc(NC(C)=O)cc1O
The melting point of the first is higher: 173 to 175 °C for the first, 148 to 151 °C for the second.

First: O=c1c2cc(F)ccc2[nH]c2c([N+](=O)[O-])ccc(Cl)c12
Second: O=[N+]([O-])c1ccc(-c2ccc(-c3ccc([N+](=O)[O-])cc3Cl)o2)c(Cl)c1
The melting point of the first is higher: 287 to 291 °C for the first, 247 to 248 °C for the second.

Compared with `CCc1c(C)[nH]c(=O)c(I)c1Oc1cc(I)cc(CC#N)c1`, `CCc1c(C(=O)c2cc(C)cc(C)c2)n(COCc2ccccc2)c(=O)[nH]c1=O` is lower in melting point: 220 °C for the first, 115 to 116 °C for the second.

First: CCc1c2s[nH]c(=O)c2c(=O)n2ccc(Cl)cc12
Second: CCCc1cccc2[nH]c(C(=O)OCC)cc(=O)c12
The melting point of the first is higher: 222 to 223 °C for the first, 153 to 154 °C for the second.

`Nc1ccc2c(c1)NC(=O)C(CCCN1CCN(c3ccc(F)cc3)CC1)O2` (stereo not drawn) and `N#Cc1cccnc1N1CCN(CCCCc2ccc(-c3csc(N)n3)cc2)CC1` cannot be ordered by melting point: 158 to 159 °C for the first, 155 to 162 °C for the second.

First: O=C1COc2ccc(CCCCCCc3ccc4c(c3)NC(=O)CO4)cc2N1
Second: O=S(=O)(Cl)c1ccc(-c2ccc3c(c2)OCO3)s1
The melting point of the first is higher: 219 to 225 °C for the first, 117 to 119 °C for the second.

Compared with `Cc1cc(C(=O)NC(=N)N)no1`, `CCc1nc(C(=O)OC)c(OC)c(N)c1F` is lower in melting point: 192 °C for the first, 110 to 113 °C for the second.

First: CCCCCCCCCCCCNC(=O)c1cc(-c2ccc(OC)cc2)cc(-c2cccc(Cl)c2OCC(=O)O)c1
Second: CCCCCCCCCCCCCCCCCCSC(=O)Nc1ccc(NC(=O)NS(=O)(=O)c2ccc(OC)cc2)cc1
The melting point of the first is lower: 114 to 117 °C for the first, 195 °C for the second.

First: CCOC(=O)C1CCn2c1cc(C)c2C(=O)c1ccc(SC)n1C (stereo not drawn)
Second: CCOC(=O)C1=C(C)NC(N=CN(C)C)=C(C(=O)OCC)C1c1ccccc1 (stereo not drawn)
The melting point of the first is lower: 101 to 102 °C for the first, 131 °C for the second.

Compared with `Cc1cc(CC2(Cc3ccncc3)c3cccnc3-c3ncccc32)cc(C)n1`, `COc1nc(C)cnc1NS(=O)(=O)c1cccnc1-c1ccc(OC(C)C(=O)O)cc1` (stereo not drawn) is lower in melting point: greater than 240 °C for the first, 149 to 151 °C for the second.

Compared with `Cc1cc(NCc2ccc3c(c2)OCO3)nc(SCC#N)n1`, `O=C1N(Cc2ccc3nonc3c2)c2ccccc2C12COc1cc3c(cc12)OCO3` (stereo not drawn) is higher in melting point: 115 to 118 °C for the first, 163 to 165 °C for the second.

Compared with `CCCn1nc(C(C)C)c(C(=O)O)c1Cc1ccc(-c2ccccc2S(=O)(=O)NC(=O)OCC(C)C)c(F)c1`, `CCCCOc1c(CNC(=O)OC(C)(C)C)n(CC(C)C)c(=O)c2ccc(C(=O)N(C)OC)cc12` is higher in melting point: 77 to 82 °C for the first, 142 to 143 °C for the second.

First: C#CC(C)Nc1c(C)cccc1C (stereo not drawn)
Second: Cc1ccc(C)c(C(=O)c2ccccc2)c1O
The melting point of the first is lower: 32 to 33 °C for the first, 111 to 114 °C for the second.

First: CN(C)C=NS(=O)(=O)c1cc(CCNC(=O)C(F)(F)F)ccc1-c1ccco1
Second: CNc1cc(CO)cc(S(N)(=O)=O)c1Oc1ccccc1
The melting point of the first is lower: 150 °C for the first, 167 to 168 °C for the second.

First: CC(C)(C)OC(=O)Nc1ccc(C#Cc2ccccc2F)cc1NC(=O)CC(=O)c1cccc(C#N)c1
Second: CC(C)(C)OC(=O)NCC(=O)Nn1cccc1C(=O)c1ccccc1F
The melting point of the first is higher: 216 to 217 °C for the first, 114 to 116 °C for the second.

First: COc1cc(-c2ccncc2)n[nH]1
Second: Cc1ccc(-c2cncnc2N)cc1
The melting point of the first is lower: 140 °C for the first, 166 to 167 °C for the second.

First: CC1CC(=O)c2cc(Cl)c(F)cc2O1 (stereo not drawn)
Second: CCn1cc(C(=O)O)c(=O)c2cc(F)c(C(C)=O)c(F)c21
The melting point of the first is lower: 88 to 90 °C for the first, 250 to 251 °C for the second.

First: Cc1nc(N2CCN(Cc3cccc(C(F)(F)F)c3)C2=O)sc1-c1cc[nH]n1
Second: O=C(O)C1=C(C(F)(F)F)COc2ccc3ccccc3c21
The melting point of the first is lower: 209 to 214 °C for the first, 246 to 249 °C for the second.

Compared with `Cc1ccc(N2C(=O)c3ccccc3C2=O)c(Cl)c1Cl`, `O=C(c1ccccc1Cl)c1ccc(O)c(Cl)c1Cl` is lower in melting point: 109 °C for the first, 74 to 77 °C for the second.

First: CC1(C)Cc2cc(S(N)(=O)=O)ccc2O1
Second: Cc1ccc(C2CC(C(N)=O)=NN2c2ccc(S(N)(=O)=O)cc2)cc1 (stereo not drawn)
The melting point of the first is lower: 157 to 160 °C for the first, 210 to 215 °C for the second.

Compared with `N#Cc1ccc(N(Cc2ccc(OCc3ccccc3)cc2)n2cnnc2)cc1-c1ccc(F)cc1`, `N#Cc1ccc(COc2cccc(C(=O)Nc3ccc(C#N)cc3)c2)cc1` is lower in melting point: 211 to 213 °C for the first, 205 to 207 °C for the second.

Compared with `COc1ccc(-c2ccc(C(=O)Nc3ccc4nc(CN5C(C)(C)CCCC5(C)C)ccc4c3)cc2)cc1`, `CC(=O)c1ccc(OCCCN2CCC(C(O)(c3ccc(F)cc3)c3ccc(F)cc3)CC2)c(C)c1` is lower in melting point: 210 to 211 °C for the first, 116 to 117 °C for the second.

First: C#CCOc1ccc(Cc2nnc(Cl)c3ccccc23)cc1
Second: CC(CNc1ccc(Cl)cc1)COc1ccc(C(=O)O)cc1 (stereo not drawn)
The melting point of the first is lower: 129 to 131 °C for the first, 148 to 150 °C for the second.

Compared with `NCc1c(-c2ccc(Oc3ccccc3)cc2)c2c(N)ncnc2n1C1CCCC1`, `COc1cc(C(=O)NS(=O)(=O)c2ccccc2C)ccc1Cc1cn(C)c2ccc(NC(=O)NC3CCCC3)cc12` is higher in melting point: 196 to 198 °C for the first, 212 to 215 °C for the second.

Compared with `Cc1ccc(NC(=O)N[C@@H]2N=C(c3ccccc3)c3ccccc3N(C)C2=O)cc1`, `CN(C(=O)CN(C(=O)CNC(=O)Nc1cccc(O)c1)c1ccccc1)c1ccccc1` is lower in melting point: 233 to 235 °C for the first, 180 °C for the second.

Compared with `O=S(=O)(Nc1ccc2[nH]c3c(c2c1)CCNC3)c1c(Cl)nc2sccn12`, `Cc1nc(-c2cc3cccc(NS(=O)(=O)c4cccs4)c3[nH]2)sc1C` is lower in melting point: 242 to 244 °C for the first, 210 to 211 °C for the second.

First: COc1cccc(CNC(=O)c2ccc(COC3CCCCO3)cc2)c1 (stereo not drawn)
Second: CCOC(=O)C(N=C(c1ccc(Cl)cc1)c1ccc(OC)cc1O)C(=O)OCC
The melting point of the first is lower: 66 to 68.5 °C for the first, 73 to 75 °C for the second.

First: COc1cc(C(O)CN2CCC(C(c3ccccc3)c3ccccc3)CC2)on1 (stereo not drawn)
Second: COc1cc2c(cc1OC)[C@H]([C@H](O)c1ccccc1)OC2=O
The melting point of the first is higher: 121 to 126 °C for the first, 113 to 115 °C for the second.

Compared with `Cc1cnc(N2C(=O)C(O)=C(C(=O)c3ccc(C(C)C)cc3)C2c2ccc(OC(F)(F)F)cc2)cn1` (stereo not drawn), `Cc1cccc(-c2[nH]c(C(C)C)nc2-c2ccc(F)c(-c3ccc(S(N)(=O)=O)cc3)c2)n1` is lower in melting point: 266 to 268 °C for the first, 245 to 246 °C for the second.

First: COC(=O)c1ccc(C(=O)NCCCCNC(=O)c2ccc(C(=O)OC)cc2)cc1
Second: COC(=O)c1ccc(OC)c(Nc2ccccc2)c1
The melting point of the first is higher: 260 to 261 °C for the first, 79 to 81 °C for the second.

First: CC(C)(C)c1cc(-c2cn3ccsc3n2)cc(C(C)(C)C)c1O
Second: COc1ccc(-c2cc3cc(OC)cc(C(=O)N(C)OC)c3o2)cc1
The melting point of the first is higher: 184 to 185 °C for the first, 109 to 111 °C for the second.

First: CCc1nc2ccn(-c3ccccc3)n2c(=O)c1C(=O)O
Second: CCS(=O)Cc1cccc(-c2nc(=O)c3ccccc3s2)n1 (stereo not drawn)
The melting point of the first is lower: 119 to 120 °C for the first, 188 to 190 °C for the second.

First: COC(=O)c1oc2ccc(Cl)cc2c1-c1ccccc1C
Second: CCOC(=O)C(C)Oc1ccc(Sc2nnc3cc(Cl)ccc3n2)cc1 (stereo not drawn)
The melting point of the first is higher: 212 to 214 °C for the first, 86 to 88 °C for the second.

First: O=Cc1ccccc1C(=O)c1ccccc1
Second: CC(NC(=O)c1ccc(I)cc1)C(O)c1ccccc1 (stereo not drawn)
The melting point of the first is lower: 64 to 67 °C for the first, 209 to 210 °C for the second.

Compared with `O=C(O)CCCCCNS(=O)(=O)c1ccc(Cl)cc1`, `O=C(O)CCCCCOc1nc(-c2ccccc2)cc(-c2ccccc2)n1` is higher in melting point: 126 to 127 °C for the first, 127 to 129 °C for the second.

Compared with `O=C(O)CCCCCOc1cc(-c2ccc(NC(=O)C(F)(F)F)cc2)cc(-c2ccccc2)n1`, `Fc1ccc(Cn2c(NC3CCN(CCNc4nc(-c5ccccc5)cs4)CC3)nc3ccccc32)cc1` is lower in melting point: 178 to 180 °C for the first, 176 °C for the second.

First: CC(C)=CC(=O)Nc1ccc2ncnc(Nc3cccc(Br)c3)c2c1
Second: CCOC(=O)c1ccc(/C=C(\C)c2cc(OC)c3c(c2)C(C)(C)CC3(C)C)cc1
The melting point of the first is higher: 300 to 301 °C for the first, 72 to 73 °C for the second.

Compared with `OC1(C=Cc2ccc(-c3cccnc3)cc2)CN2CCC1CC2` (stereo not drawn), `Oc1cccnc1CC1(O)CN2CCC1CC2` (stereo not drawn) is higher in melting point: 195 to 198 °C for the first, 270 to 272 °C for the second.

First: CCCOC(=O)c1cc(OC)c(OC)c(OCC)c1-c1c(C(=O)OC)cc(OC)c2c1OCO2
Second: CCCOC(=O)C1=C(N)NC(C)=C(C(=O)OC(C)C)C1c1cccc([N+](=O)[O-])c1 (stereo not drawn)
The melting point of the first is lower: 74.5 to 76 °C for the first, 199 °C for the second.

First: Cc1cc2c(cc1-c1c[nH]c(C=CC(=O)O)c1)C(C)(C)CCC2(C)C
Second: COC1(c2ccccc2)CCc2c(C(=O)O)cc3c(nc(C)n3C)c2O1 (stereo not drawn)
The melting point of the first is lower: 245 to 246 °C for the first, 288 to 289 °C for the second.

Compared with `CCCSc1ccc([N+](=O)[O-])c(NC(=S)NC(=O)OC)c1`, `N#Cc1cccc(-c2cc(-c3ccc(C#N)cc3O[N+](=O)[O-])on2)c1` is higher in melting point: 122 to 125 °C for the first, 198 to 199 °C for the second.

First: Oc1ccccc1-c1nc(-c2ccccc2O)nc(-c2ccccc2O)n1
Second: O=C(c1ccc(O)cc1)c1ccc(O)c(Cl)c1Cl
The melting point of the first is lower: 147 to 149 °C for the first, 208 to 210 °C for the second.

First: O=C(NCCN1CCOCC1)Nc1nc2ccc(OCc3c(Cl)cccc3Cl)cc2s1
Second: Cc1cccc(-c2[nH]c(C(C)C)nc2-c2cccc(-c3ccc(S(=O)(=O)N4CCOCC4)cc3)c2)n1
The melting point of the first is higher: 268 to 271 °C for the first, 88 to 92 °C for the second.

First: CC(=O)OC1CSC(Oc2cccc(-c3ccncc3)c2)C(OC(C)=O)C1OC(C)=O (stereo not drawn)
Second: O=C(Cc1ccncc1)NCc1cccc2c1C(=O)N(C1CCC(=O)NC1=O)C2=O (stereo not drawn)
The melting point of the first is lower: 112 °C for the first, 294 to 296 °C for the second.

First: Cn1cncc1C(O)(c1ccc(C=O)cc1)c1ccc2c(c1)c(-c1cccc(Cl)c1)nc1nnnn12 (stereo not drawn)
Second: O=C(Cc1cccnc1)[N+]1([O-])CCC(C2c3ccc(Cl)cc3CCc3cccnc32)CC1 (stereo not drawn)
The melting point of the first is higher: 170 °C for the first, 117 to 118 °C for the second.

Compared with `C[C@@H]1[C@H]2C(=O)N(Cc3ccccc3)C(=O)[C@H]2[C@@H](c2ccc(Br)cc2)N1C` (racemic), `CNc1cc(S(=O)(=O)c2ccccc2)cc(Br)n1` is lower in melting point: 166 to 168 °C for the first, 145 to 148 °C for the second.

Compared with `CC(=O)OC1CCCCC1n1c(Br)nc2cc(Cl)c(Cl)cc21` (stereo not drawn), `CCC(=O)NC1COC2=CC3=C(OCCC3)C(=O)C21` (stereo not drawn) is higher in melting point: 167 to 169 °C for the first, 184 °C for the second.

First: O=C1OCCN1c1cccc(CCBr)c1
Second: CCCCC1(N(C)C)CC=C(c2c[nH]c3ncccc23)CC1 (stereo not drawn)
The melting point of the first is lower: 73 to 75 °C for the first, 142 to 145 °C for the second.

First: CCNC(=O)COc1cc2c(c(Cl)c1Cl)C(=O)C(C)(C(C)C)C2 (stereo not drawn)
Second: CC(C)(c1ccc(O)cc1)c1ccc(OC#N)cc1
The melting point of the first is higher: 146 °C for the first, 75 °C for the second.
